Our source for the IC50, Ki and inhibition values is article PMC12597212, “Biaryl Phosphate‐Based Inhibitors of the Transcription Factor STAT4” (Chemmedchem, 2025).

Holding throughout (assay type): binding
In one experiment the target is T1, STAT5b (Homo sapiens, UniProt P51692).
T1 sequence (P51692 1-787): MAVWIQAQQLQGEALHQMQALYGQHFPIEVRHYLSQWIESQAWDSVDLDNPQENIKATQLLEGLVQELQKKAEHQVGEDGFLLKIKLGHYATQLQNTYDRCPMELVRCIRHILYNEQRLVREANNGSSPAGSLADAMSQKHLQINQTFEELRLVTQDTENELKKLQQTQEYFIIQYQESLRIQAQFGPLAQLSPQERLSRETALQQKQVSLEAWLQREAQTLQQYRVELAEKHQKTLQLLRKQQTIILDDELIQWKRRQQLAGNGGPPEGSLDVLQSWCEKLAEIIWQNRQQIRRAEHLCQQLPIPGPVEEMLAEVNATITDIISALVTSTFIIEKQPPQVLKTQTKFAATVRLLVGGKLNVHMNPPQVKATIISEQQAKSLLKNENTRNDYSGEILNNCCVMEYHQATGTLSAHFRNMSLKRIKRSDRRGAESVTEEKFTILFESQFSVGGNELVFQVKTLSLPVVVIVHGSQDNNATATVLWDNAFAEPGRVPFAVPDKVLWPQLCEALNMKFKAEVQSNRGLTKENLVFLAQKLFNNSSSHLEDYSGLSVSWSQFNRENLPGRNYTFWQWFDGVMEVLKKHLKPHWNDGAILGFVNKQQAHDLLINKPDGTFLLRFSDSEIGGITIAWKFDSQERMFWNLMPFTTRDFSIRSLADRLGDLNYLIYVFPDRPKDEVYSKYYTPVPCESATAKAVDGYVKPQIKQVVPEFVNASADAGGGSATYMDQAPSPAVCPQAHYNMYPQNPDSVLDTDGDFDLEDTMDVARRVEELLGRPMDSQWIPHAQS
Briefly: Competitive fluorescence polarization (FP) assay, STAT5b. Particulars: for IC50: 59-85 nM STAT5b, 10 nM tracer peptide; for Ki: Ki calculated from IC50, mean ± SD, n = 3; for inhibition at 100 µM: compound at 100 µM. The method, then:
(§1) Fluorescence polarization assays
(§2) STAT4; 5-carboxyfluorescein-GpYDKPHVL for STAT1; 5-carboxyfluorescein-GpYLPQTV- […]
(§3) fluorescent-labeled peptide was added. Samples were transferred to 384-well microtiter plates […]
(§4) Experiments were carried out in triplicate. Percent binding was calculated based on a logarithmic curve fit using OriginPro 8G software. Conversion of IC50 values to Ki-values was […]
(§5) Error bars represent standard deviations. […]
(§6) Experiments were carried out in triplicate. […]

A further experiment has as its target T2, STAT4 SH2 domain (Homo sapiens, UniProt Q14765).
T2 sequence (Q14765 1-748): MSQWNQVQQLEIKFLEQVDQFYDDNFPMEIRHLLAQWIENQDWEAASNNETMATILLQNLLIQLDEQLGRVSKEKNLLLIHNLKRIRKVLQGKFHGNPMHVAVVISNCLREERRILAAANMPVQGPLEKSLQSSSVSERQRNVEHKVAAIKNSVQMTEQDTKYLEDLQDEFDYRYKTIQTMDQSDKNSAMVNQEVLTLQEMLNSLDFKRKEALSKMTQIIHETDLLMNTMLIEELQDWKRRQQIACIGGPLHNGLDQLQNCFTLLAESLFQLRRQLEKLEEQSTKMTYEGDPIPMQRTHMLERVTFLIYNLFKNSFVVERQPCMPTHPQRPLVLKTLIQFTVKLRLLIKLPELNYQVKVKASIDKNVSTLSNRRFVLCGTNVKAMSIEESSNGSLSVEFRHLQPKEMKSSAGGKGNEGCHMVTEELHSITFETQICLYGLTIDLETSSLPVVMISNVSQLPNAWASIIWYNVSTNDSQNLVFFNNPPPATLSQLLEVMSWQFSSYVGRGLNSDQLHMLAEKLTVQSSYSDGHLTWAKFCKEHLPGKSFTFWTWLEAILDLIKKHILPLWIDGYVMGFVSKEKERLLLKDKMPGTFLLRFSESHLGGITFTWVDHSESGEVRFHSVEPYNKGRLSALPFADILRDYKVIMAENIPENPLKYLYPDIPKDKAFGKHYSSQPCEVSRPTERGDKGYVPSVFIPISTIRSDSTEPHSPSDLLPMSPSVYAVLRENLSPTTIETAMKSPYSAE
As to the kind of experiment: Competitive fluorescence polarization (FP) assay, STAT4. Particulars: for IC50: 28 nM STAT4, 10 nM tracer peptide; for Ki: Ki calculated from IC50, mean ± SD, n = 3. The method, then:
as §1
Competitive fluorescence polarization assays were carried as previously described.[1] Proteins […]
fluorescent-labeled peptides were used as tracers: 5-carboxyfluorescein-GpYLPQNID-OH for STAT4; 5-carboxyfluorescein-GpYDKPHVL for STAT1; 5-carboxyfluorescein-GpYLPQTV-NH2 for STAT3; 5-carboxyfluorescein-GpYLVLDKW for STAT5a/b, and 5-carboxyfluorescein- […]
mM Tris (pH 8.0), 50 mM NaCl, 1 mM EDTA, 1 mM DTT, 0.1 % Nonidet P-40 substitute, 2 %
DMSO. Proteins and test compound were incubated for 1 h at room temperature before the […]
(1 picture or pasted object on this page, not shown here) […]
fluorescent-labeled peptide was added. Samples were transferred to 384-well microtiter plates and fluorescence polarization was read after an additional 60 min of incubation time.
Experiments were carried out in triplicate. Percent binding was calculated based on a logarithmic curve fit using OriginPro 8G software. Conversion of IC50 values to Ki-values was achieved using the published equation[2] embedded in the corresponding Excel spread sheet […]
https://websites.umich.edu/~shaomengwanglab/software/calc_ki/ind ex.html.
as §5, §6

The target of the next experiment is T3, STAT1 (Homo sapiens, UniProt P42224).
T3 sequence (P42224 1-750): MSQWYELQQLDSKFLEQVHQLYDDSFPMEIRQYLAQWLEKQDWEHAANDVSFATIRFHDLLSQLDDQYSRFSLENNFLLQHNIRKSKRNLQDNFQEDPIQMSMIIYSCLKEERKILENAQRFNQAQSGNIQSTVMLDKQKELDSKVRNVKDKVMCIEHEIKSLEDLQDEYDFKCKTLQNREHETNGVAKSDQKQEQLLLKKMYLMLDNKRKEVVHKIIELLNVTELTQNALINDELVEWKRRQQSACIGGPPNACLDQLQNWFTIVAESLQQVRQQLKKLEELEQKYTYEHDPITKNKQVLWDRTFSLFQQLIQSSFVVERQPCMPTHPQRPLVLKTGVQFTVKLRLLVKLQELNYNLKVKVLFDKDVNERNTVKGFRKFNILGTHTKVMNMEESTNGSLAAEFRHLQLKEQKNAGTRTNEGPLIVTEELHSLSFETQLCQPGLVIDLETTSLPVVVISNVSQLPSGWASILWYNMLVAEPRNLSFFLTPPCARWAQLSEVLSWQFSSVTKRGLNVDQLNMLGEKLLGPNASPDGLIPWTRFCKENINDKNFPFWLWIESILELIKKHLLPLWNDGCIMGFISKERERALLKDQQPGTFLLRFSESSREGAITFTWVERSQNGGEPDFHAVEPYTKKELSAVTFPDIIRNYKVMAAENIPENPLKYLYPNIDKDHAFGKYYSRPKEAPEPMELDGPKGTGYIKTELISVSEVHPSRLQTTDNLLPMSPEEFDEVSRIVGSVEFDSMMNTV
As to the kind of experiment: Competitive fluorescence polarization (FP) assay, STAT1. Particulars: for IC50: 80-92 nM STAT1, 10 nM tracer peptide; for Ki: Ki calculated from IC50, mean ± SD, n = 3. The protocol:
as §1, §2, §3, §4, §5, §6

Take `O=P(O)(O)Oc1ccc(-c2ccsc2)cc1` [8a]: the IC50 is 47 µM on STAT5b, 1.2 µM at STAT4 SH2 domain and 20.2 µM on STAT1. Moreover, the results for the Ki on STAT5b, on STAT4 SH2 domain and on STAT1 were 23 ± 1 µM, 0.56 ± 0.06 µM and 9.2 ± 1 µM, respectively.

On to `O=P(O)(O)Oc1ccc(-c2cccs2)cc1` [8b], for which the results for the IC50 on STAT5b, at STAT4 SH2 domain and at STAT1 were 16.8 µM, 1.09 µM and 19.5 µM, respectively. Moreover, the Ki was 8.2 ± 0.4 µM at STAT5b, 0.5 ± 0.03 µM on STAT4 SH2 domain and 8.9 ± 0.5 µM on STAT1.

Take `O=P(O)(O)Oc1ccc(-c2nccs2)cc1` [8c]: the inhibition at 100 µM at STAT5b came out at 26 ± 2%. The inhibition at 200 µM on STAT5b (compound at 200 µM) was found to be 45 ± 1%. Besides, at STAT4 SH2 domain, the IC50 amounted to 8.8 µM and the inhibitory constant (Ki) was 4.1 ± 0.2 µM. For the same compound, on STAT1, the IC50 is 83 µM and the Ki is 38 ± 3 µM.

Regarding `Cc1cc(-c2ccc(OP(=O)(O)O)c(F)c2)cs1` [8f], the IC50 stood at 36 µM on STAT5b, 0.37 µM on STAT4 SH2 domain and 9 µM at STAT1. Further, the Ki is 18 ± 1 µM at STAT5b, 0.18 ± 0.03 µM at STAT4 SH2 domain and 4.4 ± 0.4 µM at STAT1.

As for `O=P(O)(O)Oc1ccc2c(c1)Cc1ccccc1-2` [compound 11], the IC50 worked out at 101 µM on STAT5b, 1.52 µM on STAT4 SH2 domain and 14.3 µM at STAT1. For the same compound, the figures for the inhibition constant (Ki) on STAT5b, at STAT4 SH2 domain and at STAT1 were 49 ± 6 µM, 0.61 ± 0.03 µM and 6.5 ± 0.2 µM, respectively.

Regarding `O=P(O)(O)Oc1ccc2c(c1)oc1ccccc12` [compound 12], the inhibition at 100 µM on STAT5b came out at 49 ± 1%. For the same compound, at STAT4 SH2 domain, the IC50 was found to be 1.78 µM and the Ki is 0.71 ± 0.08 µM. For the same compound, at STAT1, the half-maximal inhibitory concentration (IC50) is 34.3 µM and the Ki was 16 ± 1 µM.
